The test has as its system parental wild-type Ba/F3 cells. Kind of test: Ba/F3 (WT) cell proliferation assay (Alamar Blue). Format: cell-based. The following applies: Mus musculus; for inhibition at 3 µM / inhibition at 10 µM / inhibition at 1 µM: BaF3, read-out: BaF3 WT prolif, % inhibition.
Setting [1] is: BaF3, 72 hours, Alamar Blue, read-out: BaF3 WT prolif.
The mark [2] stands for this setting: BaF3, 72 h, read-out: BaF3 WT prolif (μM).

Counter-ions that a name gives are not always drawn. Like-named read-outs stand apart in the source and are kept apart here.

For `CC(C)n1ccnc1C#Cc1ccn2c(-c3cccc(NC(=O)NCC(F)(F)F)c3)cnc2c1` [Compound 266], the IC50 under setting [1] was 1.4 µM.

As for `O=C(NCC(F)(F)F)Nc1cccc(-c2cnc3cc(-c4nccc(N5CCNCC5)n4)ccn23)c1` [Compound 269], the inhibition at 3 µM was 0%.

`Nc1nc(-c2ccn3c(-c4cccc(NC(=O)NCC(F)(F)F)c4)cnc3c2)ncc1C(=O)O` [Compound 277]: the inhibition at 10 µM amounted to 0%.

For `Cn1ccnc1C#Cc1ccn2c(-c3cccc(NC(=O)NCC(F)(F)F)c3)cnc2c1` [Compound 282], the inhibition at 10 µM came to 23%. The IC50 under setting [1] was found to be 2.8 µM.

For `CCOC(=O)c1cnc(-c2ccn3c(-c4cccc(NC(=O)NCC(F)(F)F)c4)cnc3c2)nc1N` [Compound 287], the IC50 under setting [1] stood at 0.99 µM.

With `COC(=O)c1cnc(-c2ccn3c(-c4cccc(NC(=O)NCC(F)(F)F)c4)cnc3c2)nc1` [Compound 290], the inhibition at 1 µM was 16%.

`CC(=O)c1cnc(-c2ccn3c(-c4cccc(NC(=O)NCC(F)(F)F)c4)cnc3c2)nc1` [Compound 292]: the inhibition at 10 µM was 38%.

In the case of `CC(F)(F)c1cnc(-c2ccn3c(-c4cccc(NC(=O)NCC(F)(F)F)c4)cnc3c2)nc1` [Compound 293], the inhibition at 3 µM is 36%.

As to `O=C(NCC(F)(F)F)Nc1cc(Br)cc(-c2cnc3cc(-c4ccnc(C(F)(F)F)n4)ccn23)c1` [Compound 294], the inhibition at 3 µM was found to be 22%.

In the case of `O=C(NCC(F)(F)F)Nc1cc(CO)cc(-c2cnc3cc(-c4ccnc(C(F)(F)F)n4)ccn23)c1` [Compound 295], the inhibition at 10 µM was found to be 30%.

With `O=C(NCC(F)(F)F)Nc1cc(Cl)cc(-c2cnc3cc(-c4ccnc(C(F)(F)F)n4)ccn23)c1` [Compound 297], the IC50 under setting [1] was found to be 5.5 µM.

For `COc1cc(NC(=O)NCC(F)(F)F)cc(-c2cnc3cc(-c4ccnc(C(F)(F)F)n4)ccn23)c1` [Compound 298], the IC50 under setting [1] was determined as 3 µM.

In the case of `N#Cc1cc(NC(=O)NCC(F)(F)F)cc(-c2cnc3cc(-c4ccnc(C(F)(F)F)n4)ccn23)c1` [Compound 299], the inhibition at 1 µM stood at 17%.

Regarding `Nc1nc(-c2ccn3c(-c4cc(Cl)cc(NC(=O)NCC(F)(F)F)c4)cnc3c2)ncc1F` [Compound 300], the inhibition at 10 µM is 0%.

Regarding `O=C(NCC(F)(F)F)Nc1cc(-c2cnc3cc(-c4ncccn4)ccn23)cc(C(F)(F)F)c1` [Compound 301], under setting [1], the IC50 amounted to 2.81 µM.

For the compound `O=C(NCC(F)(F)F)Nc1cc(F)cc(-c2cnc3cc(-c4ncccn4)ccn23)c1` [Compound 302], the inhibition at 10 µM amounted to 0%.

Take `O=C(NCC(F)(F)F)Nc1cc(O)cc(-c2cnc3cc(-c4ccnc(C(F)(F)F)n4)ccn23)c1` [Compound 303]: the inhibition at 10 µM amounted to 0%.

For the compound `Nc1nc(-c2ccn3c(-c4cc(F)cc(NC(=O)NCC(F)(F)F)c4)cnc3c2)ncc1F` [Compound 305], the inhibition at 10 µM was found to be 6%.

For the compound `CC(=O)c1cnc(-c2ccn3c(-c4cccc(NC(=O)NCC(F)(F)F)c4)cnc3c2)nc1N` [Compound 308], the inhibition at 10 µM came to 0%.

On to `O=C(NCC(F)(F)F)Nc1cc(Cl)cc(-c2cnc3cc(-c4ncccn4)ccn23)c1` [Compound 309], for which the IC50 under setting [1] stood at 2.3 µM.

On to `Nc1cnc(-c2ccn3c(-c4cccc(NC(=O)NCC(F)(F)F)c4)cnc3c2)nc1N` [Compound 312], for which the inhibition at 10 µM was 3%.

In the case of `CNc1nc(-c2ccn3c(-c4cccc(NC(=O)NCC(F)(F)F)c4)cnc3c2)ncc1N` [Compound 313], the inhibition at 10 µM was determined as 18%.

For the compound `CCOC(=O)Nc1nc(-c2ccn3c(-c4cccc(NC(=O)NCC(F)(F)F)c4)cnc3c2)ncc1F` [Compound 315], the inhibition at 10 µM came to 35%.

Take `Nc1nc(-c2ccn3c(-c4cccc(NC(=O)NCC(F)(F)F)c4)cnc3c2)ncc1OCCO` [Compound 316]: the inhibition at 10 µM amounted to 0%.

Take `CC(C)(C)OC(=O)NCC1CCN(c2ccc(-c3ccn4c(-c5cccc(NC(=O)NCC(F)(F)F)c5)cnc4c3)cn2)CC1` [Compound 318]: under setting [1], the IC50 turned out to be 0.42 µM.

Consider `CC(C)(O)c1cccc(-c2ccn3c(-c4cccc(NC(=O)NCC(F)(F)F)c4)cnc3c2)c1` [Compound 320], for which the IC50 under setting [1] was found to be 0.71 µM.

For `Nc1cc(C(F)(F)F)nc(-c2ccn3c(-c4cccc(NC(=O)NCC(F)(F)F)c4)cnc3c2)n1` [Compound 322], under setting [1], the IC50 is 1.2 µM.

On to `CC(C)c1cc(N)nc(-c2ccn3c(-c4cccc(NC(=O)NCC(F)(F)F)c4)cnc3c2)n1` [Compound 323], for which the inhibition at 1 µM was found to be 0%.

For `COCc1cc(N)nc(-c2ccn3c(-c4cccc(NC(=O)NCC(F)(F)F)c4)cnc3c2)n1` [Compound 324], the inhibition at 10 µM worked out at 9.4%.

As to `Cc1nnc(-c2ccn3c(-c4cccc(NC(N)=O)c4)cnc3c2)o1` [Compound 328], the inhibition at 3 µM was 34%.

Regarding `Nc1nc(-c2ccn3c(-c4cccc(NC(=O)NCC(F)(F)F)c4)cnc3c2)ncc1CO` [Compound 332], the inhibition at 10 µM is 0%.

Turning to `O=C(NCC(F)(F)F)Nc1cccc(-c2cnc3cc(-c4ncc(C(=O)O)cn4)ccn23)c1` [Compound 333], the inhibition at 1 µM stood at 0%.

Regarding `COCc1cc(-c2ccn3c(-c4cccc(NC(=O)NCC(F)(F)F)c4)cnc3c2)nc(N)n1` [Compound 335], the inhibition at 10 µM came to 20%. The IC50 under setting [1] was found to be 0.74 µM.

Turning to `CC(C)(C(=O)NC1CC1)n1cc(-c2ccn3c(-c4cccc(NC(=O)NCC(F)(F)F)c4)cnc3c2)cn1` [Example 71, N-Cyclopropyl-2-[4-(3-{3-[3-(2,2,2-trifluoro-ethyl)-ureido]-phenyl}-imidazo[1,2-a]pyridin-yl)-pyrazol-1-yl)-isobutyramide], the IC50 under setting [1] amounted to 1.5 µM.

On to `Cc1cc2ncc(-c3cccc(NC(=O)NCC(F)(F)F)c3)n2cc1C` [Example 77, 1-[3-(6,7-Dimethyl-imidazo[1,2-a]pyridin-3-yl)-phenyl]-3-(2,2,2-trifluoro-ethyl)-urea formate], for which the inhibition at 10 µM came out at 53%.

`Nc1nccnc1-c1ccn2c(-c3cccc(NC(=O)NCC(F)(F)F)c3)cnc2c1` [Example 84, 1-{3-[7-(3-Amino-pyrazin-2-yl)-imidazo[1,2-a]pyridin-3-yl]-phenyl}-3-(2,2,2-trifluoro-ethyl)-urea]: the IC50 under setting [1] stood at 1.4 µM.

As to `O=C(NCC(F)(F)F)Nc1cccc(-c2cnc3cc(-c4cc(F)ccn4)ccn23)c1` [Example 103, 1-{3-[7-(4-Fluoro-pyridin-2-yl)-imidazo[1,2-a]pyridin-3-yl]-phenyl}-3-(2,2,2-trifluoro-ethyl)-urea], under setting [1], the IC50 was 0.078 µM.

For `Cc1cccnc1-c1ccn2c(-c3cccc(NC(=O)NCC(F)(F)F)c3)cnc2c1` [Example 104, 1-{3-[7-(3-Methyl-pyridin-2-yl)-imidazo[1,2-a]pyridin-3-yl]-phenyl}-3-(2,2,2-trifluoro-ethyl)-urea formate], under setting [2], the IC50 was 0.4 µM.

As for `O=C(NCC(F)(F)F)Nc1cccc(-c2cnc3cc(-c4cnc(O)cn4)ccn23)c1` [Example 105, 1-{3-[7-(5-Hydroxy-pyrazin-2-yl)-imidazo[1,2-a]pyridin-3-yl]-phenyl}-3-(2,2,2-trifluoro-ethyl)-urea hydrochloride], the inhibition at 10 µM worked out at 16%.

With `Nc1cccc(-c2ccn3c(-c4cccc(NC(=O)NCC(F)(F)F)c4)cnc3c2)n1` [Example 106, 1-{3-[7-(6-Amino-pyridin-2-yl)-imidazo[1,2-a]pyridin-3-yl]-phenyl}-3-(2,2,2-trifluoro-ethyl)-urea hydrochloride], under setting [2], the IC50 is 0.41 µM.

With `O=C(NCC(F)(F)F)Nc1cccc(-c2cnc3cc(-c4cccc(CCO)c4)ccn23)c1` [Example 107, 1-(3-{7-[3-(2-Hydroxy-ethyl)-phenyl]-imidazo[1,2-a]pyridin-yl}-phenyl)-3-(2,2,2-trifluoro-ethyl)-urea formate], under setting [2], the IC50 was determined as 0.89 µM.

Take `O=C(NCC(F)(F)F)Nc1cccc(-c2cnc3cc(-c4nccc(N5CCC(O)CC5)n4)ccn23)c1` [Example 109, 1-(3-{7-[4-(4-Hydroxy-piperidin-1-yl)-pyrimidin-2-yl]-imidazo[1,2-a]pyridin-3-yl}-phenyl)-3-(2,2,2-trifluoro-ethyl)-urea]: the IC50 under setting [1] amounted to 32 µM.

In the case of `Cc1nnc(-c2ccn3c(-c4cccc(NC(=O)NCC(F)(F)F)c4)cnc3c2)nc1C` [Example 118, 1-{3-[7-(5,6-Dimethyl-[1,2,4]triazin-3-yl)-imidazo[1,2-a]pyridin-3-yl]-phenyl}-3-(2,2,2-trifluoro-ethyl)-urea hydrochloride], the IC50 under setting [2] was determined as 0.88 µM.

For `NC(=O)Nc1cccc(-c2cnc3cc(Cl)ccn23)c1` [Example 119, [3-(7-Chloro-imidazo[1,2-a]pyridin-3-yl)-phenyl]-urea], the inhibition at 3 µM was 23%.

With `CN(C)c1ccnc(-c2ccn3c(-c4cccc(NC(=O)NCC(F)(F)F)c4)cnc3c2)n1` [Example 120, 1-{3-[7-(4-Dimethylamino-pyrimidin-2-yl)-imidazo[1,2-a]pyridin-3-yl]-phenyl}-3-(2,2,2-trifluoro-ethyl)-urea hydrochloride], the IC50 under setting [2] worked out at 1.1 µM.

Turning to `O=C(NCC(F)(F)F)Nc1cccc(-c2cnc3cc(-c4ccc(CCO)cn4)ccn23)c1` [Example 122, 1-(3-{7-[5-(2-Hydroxy-ethyl)-pyridin-2-yl]-imidazo[1,2-a]pyridin-3-yl}-phenyl)-3-(2,2,2-trifluoro-ethyl)-urea], under setting [1], the IC50 was 2.4 µM.

For `O=C(NCC(F)(F)F)Nc1cncc(-c2cnc3cc(-c4cnn(C5CNC5)c4)ccn23)c1` [Example 123, 1-{5-[7-(1-Azetidin-3-yl-1H-pyrazol-4-yl)-imidazo[1,2-a]pyridin-3-yl]-pyridin-3-yl}-3-(2,2,2-trifluoro-ethyl)-urea formate], the IC50 under setting [2] amounted to 8.9 µM.

For `Nc1cccnc1-c1ccn2c(-c3cccc(NC(=O)NCC(F)(F)F)c3)cnc2c1` [Example 125, 1-{3-[7-(3-Amino-pyridin-2-yl)-imidazo[1,2-a]pyridin-3-yl]-phenyl}-3-(2,2,2-trifluoro-ethyl)-urea hydrochloride], the IC50 under setting [2] was 2.1 µM.

On to `O=C(NCC(F)(F)F)Nc1cccc(-c2cnc3cc(-c4ccc(OC5CCNCC5)nn4)ccn23)c1` [Example 130, 1-(3-{7-[6-(Piperidin-4-yloxy)-pyridazin-3-yl]-imidazo[1,2-a]pyridin-3-yl}-phenyl)-3-(2,2,2-trifluoro-ethyl)-urea], for which the inhibition at 10 µM is 26%.

These data come from US8796244B2, “Imidazopyridine derivatives as inhibitors of receptor tyrosine kinases” (Astex Therapeutics Ltd, priority 2008, dated 2014).
